# PMC5867665, “Targeting Multiple Effector Pathways in Pancreatic Ductal Adenocarcinoma with a G-Quadruplex-Binding Small Molecule” (Journal of Medicinal Chemistry, 2018)
# Columns and labels:
# [1] = Aqueous solubility and pH of the salt; assay type: physicochemical
# Description: The synthetic approach to the trisubstituted series adapts previously published procedures to simplify purification and increase yields of both intermediates and final compounds (Scheme 1). 5,5-Dimethyl-1,3-dibromohydantoin was used for the regioselective bromination of the starting material, enabling more efficient and convenient purification. The separation of final products was achieved using column chromatography, giving a 26% overall yield for CM03.
# CM03 was then converted to a mixed hydrochloride/formate salt in order to enhance its aqueous solubility. At a concentration of 5 mg/mL, the pH of the CM03 salt solution was 6.95.
# [2] = Maximum tolerated dose (MTD) study; assay type: in vivo; settings: dose-escalation MTD study, IV, CD-1 nude mice
# Method: To determine if the in vitro activity of CM03 was paralleled in vivo, we explored the activity of CM03 in a mouse xenograft model of PDAC. We have previously reported that the maximum tolerated dosage (MTD) for intravenous (IV) administration of MM41 is 25 mg/kg.[33] CM03 was well tolerated, up to a dosage of 45–50 mg/kg, as judged by a dose-escalation MTD study. A therapeutic schedule of two CM03 intravenous (IV) doses was explored using a subcutaneous MIA PaCa-2 pancreatic tumor xenograft model derived from the human cell line used in the cell growth inhibition studies. A group size of eight CD-1 nude mice was used, and dosing was conducted at 10 and 15 mg/kg, each twice weekly, over a period of 4 weeks (28 days: 8 doses). Two further groups were given either MM41 or gemcitabine at 15 mg/kg and received the same dose regimen. […] IVIS imaging of treated mice was performed by taking account of the intrinsic fluorescence of CM03. […] Thus, in contrast to MM41 and gemcitabine, the higher-dose CM03 treatment results in a statistically significant (p < 0.001) antitumor effect, which persisted long after dosing had ceased, up to the termination of the xenograft experiment (62 days).
# The maximum tolerated dose (MTD) studies of MM41 and CM03 were performed in CD-1 nude mice. […] Mice were monitored visually for signs of adverse effects over periods of up to 72 h. […]
structure (smiles),measurement,setting,value
"O=C1c2ccc3c4c(c(NCCN5CCCC5)cc(c24)C(=O)N1CCCN1CCOCC1)C(=O)N(CCCN1CCOCC1)C3=O [CM03, 2,7-bis(3-morpholinopropyl)-4-((2-(pyrrolidin-1-yl)ethyl)amino)benzo[lmn][3,8]phenanthroline-1,3,6,8(2H,7H)-tetraone]",pH of mixed chloride/formate salt,[1],6.9
same,pH of the CM03 salt solution,"[1]; concentration of 5 mg/mL, mixed hydrochloride/formate salt",6.95
same,"well tolerated, up to a dosage of",[2],45 to 50 mg/kg
